# Values joined by “and” are separate entries in the source; they are usually repeats but may differ in a detail not shown here. Equal entries are not always repeated. “Also recorded” adds a separate entry of the source.
# Legend:
# [1] = tested on: 503 cancer cell lines; test: Compound activity profile against 503 cancer cell lines (72 h, Cell TiterGlo); format: cell-based; details: sensitive = Amax <50% and IC50 <5 μM
# Procedure: Supplementary figure 1. […] A plot […]
# of normalized maximal inhibition (Y axis) versus the inflection point (X Axis) of a standard dose-response curve for increasing concentrations of FR171456 incubated with 503 mammalian cell lines in culture for 72h (each symbol), as determined by Cell TiterGlo (Promega)
# [2] = tested on: Saccharomyces cerevisiae NF3201; test: Antifungal MIC; format: cell-based
# [3] = tested on: Candida albicans NF2103; test: Antifungal MIC; format: cell-based
# [4] = tested on: Rhizopus oryzae NF4801; test: Antifungal MIC; format: cell-based; details: Rhizopus arrhizus
# [5] = tested on: Candida parapsilosis NF2903; test: Antifungal MIC; format: cell-based; details: Lodderomyces parapsilosis
# [6] = tested on: Candida glabrata NF2905; test: Antifungal MIC; format: cell-based; details: Nakaseomyces glabratus
# [7] = tested on: Cryptococcus neoformans NF3102; test: Antifungal MIC; format: cell-based
# [8] = tested on: Aspergillus favus NF4902; test: Antifungal MIC; format: cell-based
# [9] = tested on: Aspergillus terreus NF4906; test: Antifungal MIC; format: cell-based
# [10] = tested on: Scedosporium apiospermum NF4908; test: Antifungal MIC; format: cell-based
# [11] = tested on: R. oryzae; test: Combination with clinical antifungal agents (Loewe synergy); format: cell-based; details: >1 is synergistic
# [12] = tested on: F. solani; test: Combination with clinical antifungal agents (Loewe synergy, growth by OD530); format: cell-based; details: >1 is synergistic
# Procedure: incubated for 24 h in increasing combined doses of FR171456 and Amphotericin B, and growth
# assessed by OD530. (a) Normalised growth rates plotted as % inhibition of growth. (b) Loewe excess
# heat map showing difference between predicted scores based upon the addition of each agent
# alone and the actual values detected plotted as difference in % of inhibition. (c) Loewe isobologram
# - a comparison of the doses of each compound needed to achieve 50% inhibition of proliferation.
# [13] = target: delta-opioid receptor (Homo sapiens, UniProt P41143); test: Radioligand competition assay; format: binding
# [14] = tested on: S. cerevisiae; test: Yeast fermentation with FR171456 and metabolic profiling for substrate accumulation; format: cell-based
# Procedure: In the fermentation experiment, a single yeast colony was grown in 10 ml YP with galactose (2%) & Raffinose (1%) for 5 h (OD 1.0) at 30 °C. An inoculum (70 μl) from the same culture was used to inoculate 400 ml YP-gal (2%)+Raffinose (1%). This culture was then grown overnight at 30 °C. The OD at this point was 0.7. This culture was used to seed 20-l fermenter maintained at 30 °C. When OD in the fermenter was 0.7, then 1466, nM (IC80) of FR171456 was added to the fermenter. The cell pellets (3.8 g) were harvested after 7 h. Erg26p substrate (1.95 mg) was obtained by lipid extraction with ethylacetate and methanol.
# Lipid extracts from yeast cells were prepared as described as above. Ergosterol and 4α-methylzymosterol-4-carboxylic acid were analysed on an UltiMate 3000 RS LC (Thermo Fisher Scientific, Waltham, MA, USA) coupled to a 4000 QTRAP (AB Sciex, Foster City, CA, USA), which was equipped with a ESI-Turbo Spray ion source (AB Sciex). […]
# Ion source parameters and compound-dependent instrument parameters were optimized by infusing pure standard solutions of ergosterol and 4α-methylzymosterol-4-carboxylic acid, respectively. […] All mass transitions were monitored for 65 msec per SRM scan with a unit/unit resolution for Q1/Q3. […]
# [15] = tested on: hepatic sterol synthesis; parameters: method as in PMID 15217190; details: rats, short term experiments, up to 10 mg kg^−1 ref 14; cited from earlier work
# Chain of delta-opioid receptor (P41143 whole entry): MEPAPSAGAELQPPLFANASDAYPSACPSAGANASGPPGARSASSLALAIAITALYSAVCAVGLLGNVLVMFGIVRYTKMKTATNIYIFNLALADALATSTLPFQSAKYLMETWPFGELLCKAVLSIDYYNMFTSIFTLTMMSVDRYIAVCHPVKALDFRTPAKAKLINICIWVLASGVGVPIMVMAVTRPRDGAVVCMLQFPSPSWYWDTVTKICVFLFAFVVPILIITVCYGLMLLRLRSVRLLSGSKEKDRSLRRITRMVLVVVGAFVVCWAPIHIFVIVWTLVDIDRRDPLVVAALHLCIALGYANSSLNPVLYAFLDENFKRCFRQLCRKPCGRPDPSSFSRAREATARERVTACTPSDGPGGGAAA
structure (smiles),measurement,setting,value
"C=C(CCC(C)C1CCC2C1(C)CC(O)C13CC14C(=O)CC(O)C(C)(C(=O)O)C4C(=O)CC23O)C(C)C [FR171456, (1R,2aR,3R,5aR,5bS,7aR,8S,9S,11aS,12aR)-1,5b,9-trihydroxy-2a,8-dimethyl-3-((R)-6-methyl-5-methyleneheptan-2-yl)-7,11-dioxohexadecahydrocyclopenta[a]cyclopropa[e]-phenanthrene-8-carboxylic acid]",anti-proliferative activity across cell line panel,[1],not anti-proliferative; also recorded: unaffected; also recorded: only five cell lines were sensitive
same,MIC,[2],8 µg/mL and 18 µM
same,MIC,[3],32 µg/mL and 72 µM
same,MIC,[4],8 µg/mL and 18 µM
same,MIC,[5],32 µg/mL and 72 µM
same,MIC,[6],16 µg/mL and 36 µM
same,MIC,[7],32 µg/mL and 72 µM
same,MIC,[8],64 µg/mL and 144 µM
same,MIC,[9],4 µg/mL and 9 µM
same,MIC,[10],64 µg/mL and 144 µM
same,Loewe synergy score,[11]; combination with Amphotericin B,< 1
same,Loewe synergy score,[11]; combination with posaconazole,< 1
same,Loewe synergy score,"[12]; combination of Amphotericin B and FR171456, text prints R. oryzae, Supplementary Fig. 4 F. solani",2.7
same,Loewe synergy score,[12]; combination with posaconazole,< 1
same,IC50,[13],100 nM
same,Erg26p precursor (4α-methylzymosterol-4-carboxylic acid) level,[14]; FR171456 1466 nM for 7 h,accumulates
same,IC80,"[14]; Saccharomyces cerevisiae, yeast in YP-gal (2%)+Raffinose (1%), fermenter 30 °C",1470 nM
same,dose giving significant reduction in hepatic sterol synthesis,[15],0.1 mg/kg

# — publication PMC4633953, “FR171456 is a specific inhibitor of mammalian NSDHL and yeast Erg26p” (Nature Communications, 2015)
